ChEMBL document CHEMBL1201862, “PubChem BioAssay data set” (2004)
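Grown in 96-well plates, cells were treated for 48 hours with each compound at five concentrations. Insufficient inhibition: endpoint recorded as highest concentration tested. At the GI50, growth is halved.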 Active and inactive are the calls of the source. Cut-off read from the data, not from the text of the source: active = GI50 up to about 1.1 µM and inactive = higher.

Tests used:
Experiment in all cases: growth of human tumour cells (NCI), 48 h
[1] = system: 786-0
[2] = system: A549
[3] = system: ACHN
[4] = system: CAKI-1
[5] = system: CCRF-CEM
[6] = system: COLO 205
[7] = system: DLD-1
[8] = system: DMS-114
[9] = system: DMS-273
[10] = system: EKVX
[11] = system: HCC 2998
[12] = system: HCT-116
[13] = system: HCT-15
[14] = system: HL-60
[15] = system: HOP-18
[16] = system: HOP-62
[17] = system: HOP-92
[18] = system: HT-29
[19] = system: IGROV-1
[20] = system: K562
[21] = system: KM-20L2
[22] = system: KM12
[23] = system: LOX IMVI
[24] = system: LXFL 529
[25] = system: M14
[26] = system: M19-MEL
[27] = system: MOLT-4
[28] = system: Malme-3M
[29] = system: NCI-H226
[30] = system: NCI-H23
[31] = system: NCI-H460
[32] = system: NCI-H522
[33] = system: OVCAR-3
[34] = system: OVCAR-4
[35] = system: OVCAR-5
[36] = system: OVCAR-8
[37] = system: RPMI-8226
[38] = system: RXF 393
[39] = system: RXF 631
[40] = system: SF-268
[41] = system: SF-295
[42] = system: SF-539
[43] = system: SK-MEL-28
[44] = system: SK-MEL-2
[45] = system: SK-MEL-5
[46] = system: SK-OV-3
[47] = system: SN12C
[48] = system: SNB-19
[49] = system: SNB-75
[50] = system: SNB-78
[51] = system: SR
[52] = system: SW-620
[53] = system: TK-10
[54] = system: U-251
[55] = system: UACC-257
[56] = system: UACC-62
[57] = system: UO-31
[58] = system: XF498
[59] = system: A498

## CCCCCCCCCCCC(=O)c1c(O)cccc1O
[1]
  GI50: 18.1 µM (inactive)
[2]
  GI50: 18 µM (inactive)
[3]
  GI50: 19.5 µM (inactive)
[4]
  GI50: 23.4 µM (inactive)
[5]
  GI50: 24.5 µM (inactive)
[6]
  GI50: 15.3 µM (inactive)
[7]
  GI50: 17.8 µM (inactive)
[8]
  GI50: 19.2 µM (inactive)
[9]
  GI50: 18.9 µM (inactive)
[10]
  GI50: 19.1 µM (inactive)
[11]
  GI50: 19.7 µM (inactive)
[12]
  GI50: 18 µM (inactive)
[13]
  GI50: 18.6 µM
[14]
  GI50: 19.9 µM (inactive)
[15]
  GI50: 16.2 µM (inactive)
[16]
  GI50: 17.6 µM (inactive)
[17]
  GI50: 18.1 µM (inactive)
[18]
  GI50: 22.3 µM (inactive)
[19]
  GI50: 18.1 µM (inactive)
[20]
  GI50: 31.9 µM (inactive)
[21]
  GI50: 21.7 µM (inactive)
[22]
  GI50: 16 µM (inactive)
[23]
  GI50: 18.8 µM (inactive)
[24]
  GI50: 18.5 µM (inactive)
[25]
  GI50: 18.6 µM (inactive)
[26]
  GI50: 18.8 µM (inactive)
[27]
  GI50: 20.4 µM (inactive)
[28]
  GI50: 14.6 µM (inactive)
[29]
  GI50: 19.3 µM (inactive)
[30]
  GI50: 17.6 µM (inactive)
[31]
  GI50: 21.7 µM (inactive)
[32]
  GI50: 18.7 µM (inactive)
[33]
  GI50: 17.5 µM (inactive)
[34]
  GI50: 20.4 µM (inactive)
[35]
  GI50: 15.2 µM (inactive)
[36]
  GI50: 17.9 µM (inactive)
[37]
  GI50: 26.7 µM (inactive)
[38]
  GI50: 24.4 µM (inactive)
[39]
  GI50: 18.7 µM (inactive)
[40]
  GI50: 16.3 µM (inactive)
[41]
  GI50: 17.2 µM (inactive)
[42]
  GI50: 18 µM (inactive)
[43]
  GI50: 17.8 µM (inactive)
[44]
  GI50: 15.4 µM (inactive)
[45]
  GI50: 13.6 µM (inactive)
[46]
  GI50: 30.8 µM (inactive)
[47]
  GI50: 19 µM (inactive)
[48]
  GI50: 16.5 µM (inactive)
[49]
  GI50: 16.8 µM (inactive)
[50]
  GI50: 21.8 µM (inactive)
[51]
  GI50: 21 µM (inactive)
[52]
  GI50: 19.1 µM (inactive)
[53]
  GI50: 33 µM (inactive)
[54]
  GI50: 19.3 µM (inactive)
[55]
  GI50: 16.7 µM (inactive)
[56]
  GI50: 19.6 µM (inactive)
[57]
  GI50: 16.5 µM (inactive)
[58]
  GI50: 18.3 µM (inactive)

## Cc1ccc([Se][Se]c2ccc(C)cc2)cc1
[1]
  GI50: 18.6 µM (inactive)
[59]
  GI50: > 100 µM (inactive)
[2]
  GI50: 33.3 µM (inactive)
[3]
  GI50: 25.3 µM (inactive)
[4]
  GI50: 47.4 µM (inactive)
[5]
  GI50: 3.48 µM (inactive)
[6]
  GI50: > 100 µM (inactive)
[7]
  GI50: 17.7 µM (inactive)
[8]
  GI50: 11.6 µM (inactive)
[9]
  GI50: 16.4 µM (inactive)
[11]
  GI50: 53.8 µM (inactive)
[12]
  GI50: 14.4 µM (inactive)
[13]
  GI50: 9.35 µM
[14]
  GI50: 4.02 µM (inactive)
[15]
  GI50: 6.46 µM (inactive)
[16]
  GI50: > 100 µM (inactive)
[17]
  GI50: 6.87 µM (inactive)
[18]
  GI50: 20.5 µM (inactive)
[19]
  GI50: 38.3 µM (inactive)
[20]
  GI50: 5.04 µM (inactive)
[21]
  GI50: 38.6 µM (inactive)
[22]
  GI50: 50.2 µM (inactive)
[23]
  GI50: 5.42 µM (inactive)
[24]
  GI50: 4.76 µM (inactive)
[25]
  GI50: > 10 µM (inactive)
[26]
  GI50: 13.7 µM (inactive)
[27]
  GI50: 15.1 µM (inactive)
[28]
  GI50: 32.4 µM (inactive)
[29]
  GI50: 24.5 µM (inactive)
[30]
  GI50: 23.8 µM (inactive)
[31]
  GI50: 37.8 µM (inactive)
[32]
  GI50: 3.32 µM (inactive)
[33]
  GI50: 31.6 µM (inactive)
[34]
  GI50: 12.5 µM (inactive)
[36]
  GI50: 45.3 µM (inactive)
[37]
  GI50: 5.02 µM (inactive)
[38]
  GI50: 19.9 µM (inactive)
[39]
  GI50: 21.9 µM (inactive)
[40]
  GI50: 6.84 µM (inactive)
[41]
  GI50: 23.3 µM (inactive)
[42]
  GI50: 22.3 µM (inactive)
[43]
  GI50: 19.1 µM (inactive)
[44]
  GI50: 45.2 µM (inactive)
[45]
  GI50: 16 µM (inactive)
[46]
  GI50: > 100 µM (inactive)
[47]
  GI50: 26.7 µM (inactive)
[48]
  GI50: 33 µM (inactive)
[49]
  GI50: 7.91 µM (inactive)
[50]
  GI50: 16.5 µM (inactive)
[52]
  GI50: 7.62 µM (inactive)
[53]
  GI50: 67.9 µM (inactive)
[54]
  GI50: 3.18 µM (inactive)
[55]
  GI50: 17 µM (inactive)
[56]
  GI50: 9.4 µM (inactive)
[57]
  GI50: 14.1 µM (inactive)
[58]
  GI50: 12.7 µM (inactive)
